Measurements: PMC6032158, “Structure–Activity Relationship of Piplartine and Synthetic Analogues against Schistosoma mansoni and Cytotoxicity to Mammalian Cells” (International Journal of Molecular Sciences, 2018)
“Also recorded” adds a separate entry of the source.

Legend:
[1] = system: J774A.1 cells; assay: Cell death mechanism, annexin-V FITC / propidium iodide staining by flow cytometry; type: cell-based, mouse; conditions: J774A.1, 24 h; piplartine 25 μg/mL, 14B 400 μg/mL
Experimental: Cells were then treated with 2 µL of annexin-V FITC (Apoptosis Detection Kit; BD Biosciences, Franklin Lakes, NJ, USA) and 2 µL of propidium iodide (PI, 50 µg/mL) for 15 min in the dark at room temperature. Next, 100 µL binding buffer was added and samples were analysed by flow cytometry (BD LSFortessa^TM, Franklin Lakes, NJ, USA). A total of 20,000 events were collected per sample.

[2] = system: 49-day-old S. mansoni adult worms; assay: In vitro experiments with adult worms of S. mansoni (mortality, motor activity); type: cell-based, Schistosoma mansoni; conditions: for Dead Worms (%) F / Motor Activity Reduction (%) Significant F / Motor Activity Reduction (%) Slight F: female worms; for Dead Worms (%) M / Motor Activity Reduction (%) Significant M / Motor Activity Reduction (%) Slight M: male worms; for activity against S. mansoni adult worms (in words): analogues 50, 25, 10 and 5 μM, piplartine 5 and 10 μM, up to 96 h
Outline: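 BH-strain worm pairs recovered from hamsters 49 days post-infection, washed in RPMI 1640 with penicillin, streptomycin and amphotericin B, and cultured as mated pairs with or without drug for 96 h. Motor activity changes and death were scored by microscopy.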

[3] = system: murine fibroblast (NIH-3T3) cells; assay: MTT cytotoxicity assay in murine fibroblasts; type: cell-based; set-up: Emax: dose or concentration left out as unconfirmed; conditions: for effect on NIH-3T3 cell viability (in words): MTT, 24 h exposure, 25 to 800 µg/mL
Outline: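 NIH-3T3 cells exposed 24 h to samples at 25–800 µg/mL in 3% DMSO, with 3% DMSO as control. MTT (5 mg/mL stock) added for 2 h, formazan dissolved in DMSO, absorbance read at 595 nm.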

[4] = system: mouse BALB/cN macrophage (J774A.1) cell line; assay: Cell viability by flow cytometry in macrophages; conditions: 24 h, 25, 100 and 400 µg/mL, vs DMEM control
[5] = system: S. mansoni schistosomula and adult worms; set-up: method as in PMID 20832410, PMID 22796749; conditions: cited from earlier work

## O=C(/C=C/c1ccc2c(c1)OCO2)N1CCCC1 [Compound 14B]
[1]
  annexin-V FITC staining (apoptosis marker) vs DMEM negative control (in words): significant (p < 0.05) increase in annexin-V FITC staining
[2]; 5 µM, 24 h
  Dead Worms (%) F: 0%
  Motor Activity Reduction (%) Significant F: 0%
  Motor Activity Reduction (%) Slight F: 0%
  Dead Worms (%) M: 0%
  Motor Activity Reduction (%) Significant M: 0%
  Motor Activity Reduction (%) Slight M: 0%
[2]; 5 µM, 48 h
  Dead Worms (%) F: 0%
  Motor Activity Reduction (%) Significant F: 0%
  Motor Activity Reduction (%) Slight F: 0%
  Dead Worms (%) M: 0%
  Motor Activity Reduction (%) Significant M: 0%
  Motor Activity Reduction (%) Slight M: 0%
[2]; 5 µM, 72 h
  Dead Worms (%) F: 0%
  Motor Activity Reduction (%) Significant F: 0%
  Motor Activity Reduction (%) Slight F: 0%
  Dead Worms (%) M: 0%
  Motor Activity Reduction (%) Significant M: 0%
  Motor Activity Reduction (%) Slight M: 0%
[2]; 5 µM, 96 h
  Dead Worms (%) F: 0%
  Motor Activity Reduction (%) Significant F: 0%
  Motor Activity Reduction (%) Slight F: 0%
  Dead Worms (%) M: 0%
  Motor Activity Reduction (%) Significant M: 0%
  Motor Activity Reduction (%) Slight M: 0%
[2]; 10 µM, 24 h
  Dead Worms (%) F: 0%
  Motor Activity Reduction (%) Significant F: 0%
  Motor Activity Reduction (%) Slight F: 0%
  Dead Worms (%) M: 0%
  Motor Activity Reduction (%) Significant M: 0%
  Motor Activity Reduction (%) Slight M: 0%
[2]; 10 µM, 48 h
  Dead Worms (%) F: 0%
  Motor Activity Reduction (%) Significant F: 0%
  Motor Activity Reduction (%) Slight F: 0%
  Dead Worms (%) M: 0%
  Motor Activity Reduction (%) Significant M: 0%
  Motor Activity Reduction (%) Slight M: 0%
[2]; 10 µM, 72 h
  Dead Worms (%) F: 0%
  Motor Activity Reduction (%) Significant F: 0%
  Motor Activity Reduction (%) Slight F: 0%
  Dead Worms (%) M: 0%
  Motor Activity Reduction (%) Significant M: 0%
  Motor Activity Reduction (%) Slight M: 0%
[2]; 10 µM, 96 h
  Dead Worms (%) F: 0%
  Motor Activity Reduction (%) Significant F: 0%
  Motor Activity Reduction (%) Slight F: 0%
  Dead Worms (%) M: 0%
  Motor Activity Reduction (%) Significant M: 0%
  Motor Activity Reduction (%) Slight M: 0%
[2]; 25 µM, 24 h
  Dead Worms (%) F: 0%
  Motor Activity Reduction (%) Significant F: 0%
  Motor Activity Reduction (%) Slight F: 0%
  Dead Worms (%) M: 0%
  Motor Activity Reduction (%) Significant M: 0%
  Motor Activity Reduction (%) Slight M: 0%
[2]; 25 µM, 48 h
  Dead Worms (%) F: 0%
  Motor Activity Reduction (%) Significant F: 0%
  Motor Activity Reduction (%) Slight F: 0%
  Dead Worms (%) M: 0%
  Motor Activity Reduction (%) Significant M: 0%
  Motor Activity Reduction (%) Slight M: 0%
[2]; 25 µM, 72 h
  Dead Worms (%) F: 0%
  Motor Activity Reduction (%) Significant F: 0%
  Motor Activity Reduction (%) Slight F: 0%
  Dead Worms (%) M: 0%
  Motor Activity Reduction (%) Significant M: 0%
  Motor Activity Reduction (%) Slight M: 0%
[2]; 25 µM, 96 h
  Dead Worms (%) F: 0%
  Motor Activity Reduction (%) Significant F: 0%
  Motor Activity Reduction (%) Slight F: 0%
  Dead Worms (%) M: 0%
  Motor Activity Reduction (%) Significant M: 0%
  Motor Activity Reduction (%) Slight M: 0%
[2]; 50 µM, 24 h
  Dead Worms (%) F: 0%
  Motor Activity Reduction (%) Significant F: 0%
  Motor Activity Reduction (%) Slight F: 0%
  Dead Worms (%) M: 0%
  Motor Activity Reduction (%) Significant M: 0%
  Motor Activity Reduction (%) Slight M: 0%
[2]; 50 µM, 48 h
  Dead Worms (%) F: 0%
  Motor Activity Reduction (%) Significant F: 0%
  Motor Activity Reduction (%) Slight F: 0%
  Dead Worms (%) M: 0%
  Motor Activity Reduction (%) Significant M: 0%
  Motor Activity Reduction (%) Slight M: 0%
[2]; 50 µM, 72 h
  Dead Worms (%) F: 0%
  Motor Activity Reduction (%) Significant F: 0%
  Motor Activity Reduction (%) Slight F: 0%
  Dead Worms (%) M: 0%
  Motor Activity Reduction (%) Significant M: 0%
  Motor Activity Reduction (%) Slight M: 0%
[2]; 50 µM, 96 h
  Dead Worms (%) F: 0%
  Motor Activity Reduction (%) Significant F: 0%
  Motor Activity Reduction (%) Slight F: 0%
  Dead Worms (%) M: 0%
  Motor Activity Reduction (%) Significant M: 0%
  Motor Activity Reduction (%) Slight M: 0%
[2]
  activity against S. mansoni adult worms (in words): loss of biological activity against S. mansoni
[3]
  effect on NIH-3T3 cell viability (in words): considerable reduction in cell viability at concentrations of 400 and 800 μg/mL; also recorded: showed toxicity at 200, 400 and 800 μg/mL
[3]; Mus musculus, NIH3T3, 24 h, decrease in cell viability at the maximum concentration tested (800 μg/mL), NIH-3T3, 24 h
  Emax at 800 µg/mL: 83.64 ± 0.47%

## COc1cc(/C=C/C(=O)N2CCC=CC2=O)cc(OC)c1OC [Piplartine, 3,4,5-trimethoxycinnamoyl-N-dihydropyridin-2-one]
[4]
  effect on J774A.1 cell viability (in words): significantly (p < 0.05) affected cell viability at concentrations of 25 and 100 µg/mL
[4]; listed as piplartine
  effect on J774A.1 cell viability (in words): more toxic to mammalian cells than the analogues
[1]
  annexin-V FITC staining (apoptosis marker) vs DMEM negative control (in words): significant (p < 0.05) increase in annexin-V FITC staining
[5]
  concentration with in vitro schistosomicidal activity: 10 µM
[2]; 5 µM, 24 h
  Dead Worms (%) F: 0%
  Motor Activity Reduction (%) Significant F: 0%
  Motor Activity Reduction (%) Slight F: 100%
  Dead Worms (%) M: 0%
  Motor Activity Reduction (%) Significant M: 0%
  Motor Activity Reduction (%) Slight M: 100%
[2]; 5 µM, 48 h
  Dead Worms (%) F: 0%
  Motor Activity Reduction (%) Significant F: 0%
  Motor Activity Reduction (%) Slight F: 100%
  Dead Worms (%) M: 0%
  Motor Activity Reduction (%) Significant M: 0%
  Motor Activity Reduction (%) Slight M: 100%
[2]; 5 µM, 72 h
  Dead Worms (%) F: 0%
  Motor Activity Reduction (%) Significant F: 0%
  Motor Activity Reduction (%) Slight F: 100%
  Dead Worms (%) M: 0%
  Motor Activity Reduction (%) Significant M: 0%
  Motor Activity Reduction (%) Slight M: 100%
[2]; 5 µM, 96 h
  Dead Worms (%) F: 60%
  Motor Activity Reduction (%) Significant F: 60%
  Motor Activity Reduction (%) Slight F: 0%
  Dead Worms (%) M: 60%
  Motor Activity Reduction (%) Significant M: 60%
  Motor Activity Reduction (%) Slight M: 0%
[2]; 10 µM, 24 h
  Dead Worms (%) F: 100%
  Motor Activity Reduction (%) Significant F: 100%
  Motor Activity Reduction (%) Slight F: 0%
  Dead Worms (%) M: 100%
  Motor Activity Reduction (%) Significant M: 100%
  Motor Activity Reduction (%) Slight M: 0%
[2]; 10 µM, 48 h
  Dead Worms (%) F: 100%
  Motor Activity Reduction (%) Significant F: 100%
  Motor Activity Reduction (%) Slight F: 0%
  Dead Worms (%) M: 100%
  Motor Activity Reduction (%) Significant M: 100%
  Motor Activity Reduction (%) Slight M: 0%
[2]; 10 µM, 72 h
  Dead Worms (%) F: 100%
  Motor Activity Reduction (%) Significant F: 100%
  Motor Activity Reduction (%) Slight F: 0%
  Dead Worms (%) M: 100%
  Motor Activity Reduction (%) Significant M: 100%
  Motor Activity Reduction (%) Slight M: 0%
[2]; 10 µM, 96 h
  Dead Worms (%) F: 100%
  Motor Activity Reduction (%) Significant F: 100%
  Motor Activity Reduction (%) Slight F: 0%
  Dead Worms (%) M: 100%
  Motor Activity Reduction (%) Significant M: 100%
  Motor Activity Reduction (%) Slight M: 0%
[2]; adult worms
  concentrations active against S. mansoni: 5 to 10 µM
[2]
  activity against S. mansoni adult worms (in words): showed activity against the parasite 24 h after incubation
[3]
  effect on NIH-3T3 cell viability (in words): decreased cell viability after 24 h of exposure, exhibiting considerable toxicity; also recorded: showed toxicity at all concentrations tested
[3]; Mus musculus, NIH3T3, 24 h
  Emax: 96.94 ± 0.12%
